From US20080299140A1, “Immunogenic Composition and Peptide Sequences for Prevention and Treatment of an Hsv Condition” (priority 2002, published 2008)
Read-outs that look alike come from different tables or passages of the source.

Legend:
[1] = biological target: T1, DR4=HLA-DR(α1*0101,α1*0401) (Homo sapiens, UniProt P01903+P01911, A100K/A169T/F76Y/I96L/K127E/L162R/M171V/N62H/P40V/Q125Y/R42H/S133A/S149N/S66Y/V115G/V209L/W38E); test: biochemical; type: binding
T1 construct: endogenous in cells; host or cells: BOLETH (EBV homozygous B cell line)

[2] = biological target: T2, DR7=HLA-DR(α1*0101,α1*0701) (Homo sapiens, UniProt P01903+P01911, A100R/A102G/A103Q/D57E/D86V/E43K/F76Y/K127E/L162R/M171V/P40G/Q125H/Q99D/R33Q/R42Y/R54Q/S133A/S66F/T210M/V115G/Y107V/Y59L/Y89S); test: HLA-DR specific binding assay, DR7
T2 construct: endogenous in cells; host or cells: EBV homozygous human B cell line

[3] = biological target: T3, DR11=HLA-DR(α1*0101,α1*1101) (Homo sapiens, UniProt P01903+P01911, A100R/A169T/A87E/I96F/K41T/L162R/M171V/P40S/Q125H/Q178H/Q39Y/Q99D/R42S/S66Y/T262R/V115G/W38E); test: biochemical; type: binding
T3 construct: endogenous in cells; host or cells: SWEIG (EBV homozygous B cell line)

[4] = biological target: T4, DRB3=HLA-DR(α1*0101,α3*0101) (Homo sapiens, UniProt P01903+P79483); test: HLA-DR specific binding assay, DRB3 (DR52)
T4 construct: endogenous in cells; host or cells: STEILIN or 0206AD (both typed DRB3*0101)

[5] = biological target: T5, DRB4=HLA-DR(α1*0101,α4*0101) (Homo sapiens, UniProt P01903+P13762, G164S); test: HLA-DR specific binding assay, DRB4 (DR53)
T5 construct: endogenous in cells

[6] = biological target: T6, DRB5=HLA-DR(α1*0101,α5*0101) (Homo sapiens, UniProt P01903+Q30154); test: biochemical; type: binding
T6 construct: endogenous in cells; host or cells: EBV homozygous human B cell line

T-cells = test: Cytokine analysis (IL-2, IL-4, IFN-γ sandwich ELISA); type: cell-based, mice
Description: T-cells were stimulated with either immunizing peptides (10 μg/ml), the irrelevant control peptide (10 μg/ml), UV-inactivated HSV-1 (MOI=3), or with ConA (0.5 μg/ml) as a positive control. Culture media were harvested 48 h (for IL-2) or 96 h (for IL-4 and IFN-γ) later and analyzed by specific sandwich ELISA following the manufacturer's instructions (PharMingen, San Diego, Calif.).

I-E^d molecule = biological target: T7, I-E^d molecule (Mus musculus, UniProt P01904+P01915); test: Binding to I-E^d molecule; set-up: species or system mice
T7 sequence (P01904 26-255): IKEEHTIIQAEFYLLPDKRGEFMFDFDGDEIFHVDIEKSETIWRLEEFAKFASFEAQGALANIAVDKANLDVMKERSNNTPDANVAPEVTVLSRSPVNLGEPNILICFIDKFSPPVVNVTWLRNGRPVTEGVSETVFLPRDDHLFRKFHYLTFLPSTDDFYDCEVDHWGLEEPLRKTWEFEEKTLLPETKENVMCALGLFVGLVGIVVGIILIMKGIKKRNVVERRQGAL
T7 sequence (P01915 32-264): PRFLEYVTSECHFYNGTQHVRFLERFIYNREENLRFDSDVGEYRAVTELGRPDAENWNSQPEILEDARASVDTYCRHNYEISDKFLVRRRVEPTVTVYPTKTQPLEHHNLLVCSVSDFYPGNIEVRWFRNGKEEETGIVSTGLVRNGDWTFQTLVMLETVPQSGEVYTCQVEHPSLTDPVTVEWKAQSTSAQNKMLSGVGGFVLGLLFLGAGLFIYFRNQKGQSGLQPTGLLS

[7] = Class II MHC allele DR4, read-out: IC50, DR4
[8] = Table V, […], read-out: IC50 DR4
[9] = Class II MHC allele DR11, read-out: IC50, DR11
[10] = Table V, […], read-out: IC50 DR11
[11] = IC50, DRD3, Class II MHC allele DRD3 (so in the source)
[12] = Table V, […], read-out: IC50 DRB5
[13] = T cells treated with Abs to CD4
[14] = T cells treated with Abs to CD8
[15] = splenocyte derived T cells, no Abs, average of triplicates (+/- SD)

T6 sequence (Q30154 30-266, other chains not shown): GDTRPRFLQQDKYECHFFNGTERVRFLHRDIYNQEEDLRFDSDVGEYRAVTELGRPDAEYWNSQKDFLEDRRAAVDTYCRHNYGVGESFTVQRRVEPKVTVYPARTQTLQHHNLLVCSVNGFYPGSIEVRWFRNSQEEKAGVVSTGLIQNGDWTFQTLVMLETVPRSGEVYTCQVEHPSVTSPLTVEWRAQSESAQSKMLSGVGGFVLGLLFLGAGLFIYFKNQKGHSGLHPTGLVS
T4 sequence (P79483 30-266, other chains not shown): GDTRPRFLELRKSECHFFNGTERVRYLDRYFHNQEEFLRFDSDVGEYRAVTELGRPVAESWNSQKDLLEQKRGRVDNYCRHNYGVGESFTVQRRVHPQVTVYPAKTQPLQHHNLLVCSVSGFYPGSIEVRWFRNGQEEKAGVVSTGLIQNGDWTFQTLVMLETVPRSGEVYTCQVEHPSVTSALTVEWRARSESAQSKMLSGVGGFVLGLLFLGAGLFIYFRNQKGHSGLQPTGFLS

| SMILES | IC50 [1, 7] [nM] | IC50 [1, 8] [nM] | IC50 [2] [nM] | IC50 [3, 9] [nM] | IC50 [3, 10] [nM] | IC50 [4, 11] [nM] | IC50 ([4]; IC50 DRB3, Table V, […]) [nM] | IC50 [5] [nM] | IC50 [6, 12] [nM] | IC50 ([3]; IC50, DR11) [nM] | IC50 ([3]; IC50 DR11) [nM] | binding to I-E^d molecule (I-E^d molecule) | also measured |
| --- | --- | --- | --- | --- | --- | --- | --- | --- | --- | --- | --- | --- | --- |
| CC[C@H](C)[C@H](NC(=O)[C@@H]1CCCN1C(=O)[C@H](CS)NC(=O)[C@H](C)NC(=O)CNC(=O)[C@H](CC(C)C)NC(=O)[C@H](CO)NC(=O)[C@H](CCCCN)NC(=O)[C@@H](N)CC(N)=O)C(=O)N[C@@H](CCCNC(=N)N)C(=O)N[C@H](C(=O)N[C@@H](CCC(N)=O)C(=O)N1CCC[C@H]1C(=O)N[C@@H](CCCNC(=N)N)C(=O)N[C@@H](Cc1c[nH]c2ccccc12)C(=O)N[C@@H](CC(N)=O)C(=O)N[C@@H](Cc1ccc(O)cc1)C(=O)N[C@@H](Cc1ccc(O)cc1)C(=O)N[C@@H](CC(=O)O)C(=O)N[C@@H](CO)C(=O)N[C@@H](Cc1ccccc1)C(=O)N[C@@H](CO)C(=O)N[C@@H](C)C(=O)N[C@H](C(=O)N[C@@H](CO)C(=O)N[C@@H](CCC(=O)O)C(=O)N[C@@H](CC(=O)O)C(=O)N[C@@H](CC(N)=O)C(=O)N[C@@H](CC(C)C)C(=O)NCC(=O)N[C@@H](Cc1ccccc1)C(=O)N[C@@H](CC(C)C)C(=O)O)C(C)C)[C@@H](C)O [HSV 33] | 6 | 8 | 19 | 289 | 289 | 226 | 226 | 319 | 134 | – | – | – | – |
| CC[C@H](C)[C@H](NC(=O)[C@H](CCC(N)=O)NC(=O)[C@@H]1CCCN1C(=O)[C@H](C)NC(=O)[C@H](CCC(=O)O)NC(=O)[C@H](CO)NC(=O)[C@@H]1CCCN1C(=O)[C@H](C)NC(=O)[C@H](CC(N)=O)NC(=O)[C@H](CC(C)C)NC(=O)[C@H](CC(C)C)NC(=O)[C@@H](NC(=O)[C@H](CO)NC(=O)[C@H](CCCNC(=N)N)NC(=O)[C@H](CS)NC(=O)[C@H](C)NC(=O)[C@H](CCCNC(=N)N)NC(=O)[C@H](CCC(=O)O)NC(=O)[C@H](CC(C)C)NC(=O)[C@@H](NC(=O)[C@H](C)NC(=O)[C@H](Cc1ccc(O)cc1)NC(=O)[C@H](Cc1ccc(O)cc1)NC(=O)[C@@H](NC(=O)[C@@H](NC(=O)[C@@H](NC(=O)[C@@H]1CCCN1C(=O)[C@H](CC(C)C)NC(=O)[C@H](CO)NC(=O)[C@@H]1CCCN1C(=O)[C@@H]1CCCN1C(=O)[C@@H](N)CCC(N)=O)[C@@H](C)CC)[C@@H](C)O)C(C)C)C(C)C)C(C)C)C(=O)N[C@H](C(=O)N[C@@H](CCCNC(=N)N)C(=O)O)C(C)C [HSV 36] | 93 | 93 | 173 | – | – | 5000 | 5000 | – | – | 120 | 120 | – | IC50 [6]: 66 nM; IFNγ, Anti-CD4 (T-cells; [13]): 6 (+/−2) ng/ml; IL-2, Anti-CD4 (T-cells; [13]): 22 (+/−2) pg/ml; IFNγ, Anti-CD8 (T-cells; [14]): 66 (+/−2) ng/ml; IL-2, Anti-CD8 (T-cells; [14]): 88 (+/−5) pg/ml; IFNγ, None (T-cells; [15]): 60 (+/−4) ng/ml; IL-2, None (T-cells; [15]): 92 (+/−5) pg/ml |
| CC[C@H](C)[C@H](NC(=O)[C@H](CO)NC(=O)[C@@H]1CCCN1C(=O)[C@@H](NC(=O)[C@H](Cc1c[nH]cn1)NC(=O)[C@H](Cc1c[nH]c2ccccc12)NC(=O)[C@H](CC(N)=O)NC(=O)[C@@H]1CCCN1C(=O)[C@@H]1CCCN1C(=O)[C@@H](NC(=O)[C@H](CCC(N)=O)NC(=O)[C@@H]1CCCN1C(=O)[C@H](C)N)[C@@H](C)CC)[C@@H](C)CC)C(=O)N[C@@H](CCC(N)=O)C(=O)N[C@@H](CC(=O)O)C(=O)N[C@@H](C)C(=O)N[C@@H](C)C(=O)N[C@H](C(=O)N1CCC[C@H]1C(=O)N[C@@H](Cc1ccc(O)cc1)C(=O)N[C@@H](Cc1c[nH]cn1)C(=O)N1CCC[C@H]1C(=O)N1CCC[C@H]1C(=O)N[C@@H](C)C(=O)N[C@H](C(=O)N1CCC[C@H]1C(=O)N[C@@H](CC(N)=O)C(=O)N[C@@H](CC(N)=O)C(=O)N[C@@H](CCSC)C(=O)NCC(=O)N[C@@H](CC(C)C)C(=O)O)[C@@H](C)O)[C@@H](C)O [HSV 35] | 600 | 600 | 2450 | – | – | 5000 | 5000 | 3260 | 4500 | 25000 | 25000 | strong binders | – |
| CC[C@H](C)[C@H](NC(=O)[C@H](CO)NC(=O)[C@H](CC(=O)O)NC(=O)[C@@H](NC(=O)[C@@H](NC(=O)[C@@H](NC(=O)CNC(=O)[C@H](CCC(N)=O)NC(=O)[C@H](CCC(N)=O)NC(=O)[C@H](Cc1ccc(O)cc1)NC(=O)[C@H](C)NC(=O)[C@H](CCC(N)=O)NC(=O)[C@@H]1CCCN1C(=O)[C@H](CO)NC(=O)[C@H](CC(C)C)NC(=O)[C@H](CS)NC(=O)[C@H](C)NC(=O)[C@@H](N)CO)C(C)C)[C@@H](C)O)C(C)C)C(=O)NCC(=O)N[C@@H](CCSC)C(=O)N[C@@H](CC(C)C)C(=O)N1CCC[C@H]1C(=O)N[C@@H](CCCNC(=N)N)C(=O)N[C@@H](Cc1ccccc1)C(=O)N[C@H](C(=O)N1CCC[C@H]1C(=O)N[C@@H](CCC(=O)O)C(=O)N[C@@H](CC(N)=O)C(=O)N[C@@H](CCC(N)=O)C(=O)N[C@@H](CCCNC(=N)N)C(=O)N[C@H](C(=O)N[C@H](C(=O)N[C@@H](C)C(=O)N[C@H](C(=O)N[C@@H](Cc1ccc(O)cc1)C(=O)O)C(C)C)C(C)C)[C@@H](C)O)[C@@H](C)CC [HSV 37] | – | – | 200 | 44 | 44 | 41 | 41 | 3740 | 68 | – | – | strong binders | IC50 ([1]; IC50, DR4): 40 nM; IC50 ([1]; IC50 DR4): 40 nM |
